# Assay results taken from ChEMBL document CHEMBL3588797, “Tetrazole activity against Candida albicans. The role of KEX2 mutations in the sensitivity to (±)-1-[5-(2-chlorophenyl)-2H-tetrazol-2-yl]propan-2-yl acetate” (Bioorg Med Chem Lett, 2015).
# Calls of active or inactive are those of the source. The rule behind the calls is not given here.
# Tests used:
# Candida albicans [1] = test: Antifungal activity against Candida albicans 90028 ATCC assessed as inhibition of growth at 8 ug/ml after 48 hrs relative to control; type: functional
# Candida albicans [2] = test: Antifungal activity against Candida albicans 90028 ATCC assessed as inhibition of growth at 4 ug/ml after 48 hrs relative to control; type: functional
# Candida albicans [3] = test: Antifungal activity against Candida albicans 90028 ATCC assessed as decrease in turbidity after 48 hrs relative to control; type: functional
# Candida albicans [4] = test: Antifungal activity against Candida albicans 90028 ATCC assessed as inhibition of growth at 16 ug/ml after 48 hrs relative to control; type: functional
# Candida albicans [5] = test: Antifungal activity against Candida albicans 90028 ATCC assessed as inhibition of growth at 0.03 ug/ml after 48 hrs relative to control; type: functional
# Candida albicans [6] = test: Antifungal activity against Candida albicans 90028 ATCC assessed as inhibition of growth at 0.25 ug/ml after 48 hrs relative to control; type: functional
# Candida albicans [7] = test: Antifungal activity against Candida albicans 90028 ATCC assessed as inhibition of growth at 1 ug/ml after 48 hrs relative to control; type: functional
# Candida albicans [8] = test: Antifungal activity against Candida albicans 90028 ATCC assessed as inhibition of growth at 0.12 ug/ml after 48 hrs relative to control; type: functional
# Candida albicans [9] = test: Antifungal activity against Candida albicans 90028 ATCC assessed as inhibition of growth at 2 ug/ml after 48 hrs relative to control; type: functional
# Candida albicans [10] = test: Antifungal activity against Candida albicans 90028 ATCC assessed as inhibition of growth at 0.5 ug/ml after 48 hrs relative to control; type: functional
# Candida albicans [11] = test: Antifungal activity against Candida albicans 90028 ATCC assessed as inhibition of growth at 0.06 ug/ml after 48 hrs relative to control; type: functional
# Nakaseomyces glabratus = test: Inhibition of Candida glabrate 1010 with kex2 delta mutant and functional TRP1 adhesion to the Caco-2 cell line; type: organism-based
# Candida albicans [12] = test: Inhibition of Wild type Candida albicans SC5314 adhesion to the Caco-2 cell line; type: functional
# Candida albicans [13] = test: Antifungal activity against Candida albicans 90028 ATCC assessed as reduction in 99% growth after 48 hrs relative to control; type: functional
# Vero = test: Cytotoxicity against african green monkey Vero cells assessed as reduction in cell viability at 2 to 0.125 ug/mL after 6 hrs by XTT assay; type: cell-based; settings: chlorocebus sabaeus
# Candida albicans [14] = test: Inhibition of Candida albicans bioflim formation during Caco2 cell invasion assessed as sessile growth at 16 ug/ml after 18 hrs by confocal laser scanning microscopy; type: functional, organism-based; settings: Caco-2
# Candida albicans [15] = test: Inhibition of wild type Candida albicans adherence to Caco2 cells at 16 ug/ml after 18 hrs; type: functional; settings: Caco-2, 18 h
# Candida albicans [16] = test: Inhibition of Candida albicans bioflim formation during Caco2 cell invasion assessed as lack of hyphea at 1 ug/ml after 18 hrs by confocal laser scanning microscopy; type: functional, organism-based; settings: Caco-2
# Candida albicans [17] = test: Inhibition of Candida albicans with loss of one copy KEX2 allele and both copies of URA3 CNA2 mutant adhesion to the Caco-2 cell line; type: functional
# Candida albicans [18] = test: Inhibition of Candida albicans with loss of both copies KEX2 allele and both copies of URA3 CNA4 mutant adhesion to the Caco-2 cell line; type: functional, organism-based
# [19] = Cytotoxicity against african green monkey Vero cells assessed as reduction in cell viability at 4 to 32 ug/mL after 6 hrs by XTT assay; type: cell-based; settings: chlorocebus sabaeus, read-out: INH
# Candida albicans [20] = test: Inhibition of Candida albicans 1008 with trp1/kex2 delta mutant adhesion to the Caco-2 cell line; type: functional
# Candida albicans [21] = test: Inhibition of Candida albicans 1008 adhesion to the Caco-2 cell line; type: functional
# [22] = Cytotoxicity against african green monkey Vero cells assessed as reduction in cell viability at 64 to 256 ug/mL after 6 hrs by XTT assay; type: cell-based; settings: chlorocebus sabaeus, read-out: INH
# Candida albicans [23] = test: Inhibition of Candida albicans kex delta CNA1 mutant adhesion to the Caco-2 cell line; type: functional, organism-based
SMILES,inhibition at 8 µg/mL (Candida albicans [1]),inhibition at 4 µg/mL (Candida albicans [2]),MIC (Candida albicans [3]),inhibition at 16 µg/mL (Candida albicans [4]),inhibition at 0.03 µg/mL (Candida albicans [5]),inhibition at 0.25 µg/mL (Candida albicans [6]),inhibition at 1 µg/mL (Candida albicans [7]),inhibition at 0.12 µg/mL (Candida albicans [8]),inhibition at 2 µg/mL (Candida albicans [9]),inhibition at 0.5 µg/mL (Candida albicans [10]),inhibition at 0.06 µg/mL (Candida albicans [11]),further results
CC(=O)OC(C)CCn1nnc(-c2ccccc2)n1 (racemic),99%,99%,4 mg/L,98.8%,98.9%,99%,98.9%,98.9%,98.9%,98.9%,98.9%,–
CC(=O)OC(C)CCn1nnc(-c2ccc(C)cc2)n1 (racemic),99%,99%,4 mg/L,98.9%,98.9%,99%,98.9%,98.9%,99%,98.9%,98.9%,–
CC(=O)OC(C)CCn1nnc(-c2ccccc2Cl)n1 (racemic),99%,99%,4 mg/L,98.9%,98.9%,98.9%,98.9%,98.9%,98.9%,98.9%,98.9%,–
CC(=O)OC(C)Cn1nnc(-c2ccc(C)cc2)n1 (racemic),99%,99.1%,0.5 mg/L,99%,98.7%,98.9%,99.1%,99%,99%,99%,98.9%,–
CC(=O)OC(C)Cn1nnc(-c2ccccc2Cl)n1 (racemic),99%,99%,–,99%,98.9%,99%,99%,99%,99%,99%,98.9%,inhibition (Nakaseomyces glabratus): inactive; inhibition (INH) (Candida albicans [12]): 86%; MFC (Candida albicans [13]): 0.0313 mg/L; Activity (Vero): Non-toxic; Activity (Candida albicans [14]): inactive; inhibition at 16 µg/mL (Candida albicans [15]): 86%; inhibition (Candida albicans [16]): inactive; inhibition (INH) (Candida albicans [17]): 91%; inhibition (Candida albicans [18]): inactive; cytotoxicity at 6 h [19]: 4%; inhibition (INH) (Candida albicans [20]): 82.89%; inhibition (INH) (Candida albicans [21]): 42.3%; cytotoxicity at 6 h [22]: 13%; inhibition (Candida albicans [23]): inactive
CC(O)CCn1nnc(-c2ccccc2)n1 (racemic),98.9%,99%,0.125 mg/L,98.9%,98.8%,99%,99%,99%,98.9%,99%,98.9%,–
